The results in this text go back to patent publication US9809560B2, “Ligands and methods for labeling biomolecules in vivo” (Albert Einstein College of Medicine, Inc., priority 2010, dated 2017).

In data set [1] the test system is zebrafish embryos. Nature of the data set: Imaging of fucosylated glycans in zebrafish embryos microinjected with GDP-FucAl. In kind it is in vivo. The settings on record: among 120 embryos microinjected with nucleotide sugar analogues and treated with click reagents, through four days post click reaction. As to the method: Zebrafish embryos at the one-cell or two-cell stage were microinjected in the yolk with 1 nL of a 20 mM solution of GDP-FucAl (or GDP-fucose) and either rhodamine-dextran (5% w/v) or phenol red (0.1% w/v) in 0.2 M KCl as a tracer. The embryos were allowed to develop to 5 hpf, at which point they were manually dechorionated. The dechorionated embryos were cultured in E3 embryo medium at 28° C. for an additional 3 h before transferring to 1% agarose-coated 96-well plates containing 92 μL embryo medium using a fire-polished wide-bore Pasteur pipette. Alexa Fluor-488 azide (100 μM from a 1.75 mM stock in H2O) was added to each well, followed by BTTES-CuSO4 or BTTA-CuSO4 6:1 complex ([Cu]=50 μM from 2.5 mM stock). […] After mounting on a slide or 50 mm glass bottom dishes (Matek) in 1.5-3% methyl cellulose and E3 medium, the embryos were ready for imaging by confocal microscopy.
To image fucosylated glycans in zebrafish embryos, GDP-FucAl was synthesized chemoenzymatically and microinjected embryos at the one-cell stage with 20 pmol of GDP-FucAl (FIG. 4B). […] Robust labeling of the treated embryos was achieved within 1-3 min reaction (FIG. 4C), and only background fluorescence was detected for control embryos microinjected with GDP-fucose (FIG. 10). […]

Data set [2] in a line: Fluorogenic kinetic assay of CuAAC of 3-azido-7-hydroxy-coumarin and propargyl alcohol. Particulars: 75 μM CuSO4 premixed with ligand, [ligand]:[copper] 2:1 to 6:1; within 15 min. The protocol:
FIG. 1A-1C. Copper(I)-catalyzed azide-alkyne cycloaddition (CuAAC) is accelerated by Cu(I)-stabilizing ligands. (A) CuAAC of azides and terminal alkynes to form 1,4-disubstituted 1,2,3-triazoles. (B) Structures of CuAAC-accelerating ligands. (C) Conversion-time profiles of CuAAC in the presence/absence of accelerating ligands. Reaction conditions: propargyl alcohol (50 μM), 3-azido-7-hydroxy-coumarin (100 μM), CuSO4 (75 μM), 0.1 M potassium phosphate buffer (pH 7.0)/DMSO 95:5, sodium ascorbate ([…]), rt. Error bars represent the standard deviation of three replicate experiments.
Protocol for Kinetic Measurement of CuAAC of 3-azido-7-hydroxy-coumarin and Propargyl Alcohol […]
Procedure for 200 μL reactions: In a 96-well fluorescence plate, add the reagents in the following order: (1) 40 μL of 500 mM phosphate buffer pH 7.0; (2) 1.0 μL 10 mM propargyl alcohol; (3) 10 μL of DMSO; (4) 6 μL of premixed CuSO4 and ligand ([Cu]=2.5 mM); (5) 1.0 μL 20 mM coumarin-N3; (6) 20 μL of 25 mM sodium ascorbate; (7) Read fluorescence (λex=404 nm, λem=477 nm, RFU) on the Synergy plate reader.

For the molecule `CC(C)(C)n1cc(CN(Cc2cn(CCOS(=O)(=O)O)nn2)Cc2cn(C(C)(C)C)nn2)nn1` [BTTES], the “embryos with minor developmental defects” value in data set [1] is recorded as “less than twelve embryos exhibited minor developmental defects”. Besides, in data set [2], the cycloaddition product yield is above 50%.
